Measured values: ChEMBL document CHEMBL3885861, “Open TG-GATES”

Organism: Rattus norvegicus
Assay: Open TG-GATES - Regimen: Single
Assay type: toxicity, organism-based, Sprague-Dawley
Set-up: regimen Single, gender Male, age 6 weeks
Details: in vivo, po, 60 mg/kg, route gavage, dose level Middle; for APTT / Bas / Eos / Fbg / Hb / Ht / Lym / MCH / MCHC / MCV / Mono / Neu / PT / Plat / RBC / Ret / WBC: tissue Blood; for KIDNEY_L / KIDNEY_R / KIDNEY_TOTAL: tissue Kidney; for LIVER: tissue Liver; for A/G / ALP / ALT / AST / BUN / CRE / Ca / Cl / DBIL / GLC / IP / K / LDH / Na / PL / RALB / TBIL / TC / TG / TP / gamma-GTP: tissue Plasma

Cn1c(=O)c2[nH]cnc2n(C)c1=O.O [THEOPHYLLINE]
TERMINAL_BW (3 h): 215.5 g | APTT (3 h): 22.1 s | Bas (3 h): 0% | Eos (3 h): 1.2% | Fbg (3 h): 306 mg/dL | Hb (3 h): 12.6 g/dL | Ht (3 h): 38.3% | Lym (3 h): 68.6% | MCH (3 h): 20.2 pg | MCHC (3 h): 32.9% | MCV (3 h): 61.6 fL | Mono (3 h): 2.2% | Neu (3 h): 26.4% | PT (3 h): 15.4 s | Plat (3 h): 117 x10_4/uL | RBC (3 h): 622.6 x10_4/ul | Ret (3 h): 7.6% | WBC (3 h): 72.7 x10_2/uL | KIDNEY_L (3 h): 1 g | KIDNEY_R (3 h): 1 g | KIDNEY_TOTAL (3 h): 1.9 g | LIVER (3 h): 9.3 g | A/G (3 h): 1.3 | ALP (3 h): 1415.2 IU/L | ALT (3 h): 44.8 IU/L | AST (3 h): 80.2 IU/L | BUN (3 h): 13 mg/dL | CRE (3 h): 0.2 mg/dL | Ca (3 h): 10.2 mg/dL | Cl (3 h): 108 meq/L | DBIL (3 h): 0 mg/dL | GLC (3 h): 184.4 mg/dL | IP (3 h): 7.3 mg/dL | K (3 h): 3.5 meq/L | LDH (3 h): 184.2 IU/L | Na (3 h): 140.6 meq/L | PL (3 h): 120 mg/dL | RALB (3 h): 3.2 g/dL | TBIL (3 h): 0.022 mg/dL | TC (3 h): 67.8 mg/dL | TG (3 h): 33.6 mg/dL | TP (3 h): 5.6 g/dL | gamma-GTP (3 h): 1.6 IU/L | TERMINAL_BW (6 h): 215.8 g | APTT (6 h): 23.9 s | Bas (6 h): 0% | Eos (6 h): 0.8% | Fbg (6 h): 302.8 mg/dL | Hb (6 h): 13.1 g/dL | Ht (6 h): 40% | Lym (6 h): 75.2% | MCH (6 h): 20.9 pg | MCHC (6 h): 32.7% | MCV (6 h): 64 fL | Mono (6 h): 3.2% | Neu (6 h): 19.4% | PT (6 h): 15.6 s | Plat (6 h): 119.8 x10_4/uL | RBC (6 h): 626.8 x10_4/ul | Ret (6 h): 7.4% | WBC (6 h): 74.1 x10_2/uL | KIDNEY_L (6 h): 0.9 g | KIDNEY_R (6 h): 0.9 g | KIDNEY_TOTAL (6 h): 1.8 g | LIVER (6 h): 9 g | A/G (6 h): 1.2 | ALP (6 h): 1323.6 IU/L | ALT (6 h): 41.6 IU/L | AST (6 h): 86 IU/L | BUN (6 h): 11.6 mg/dL | CRE (6 h): 0.2 mg/dL | Ca (6 h): 10.6 mg/dL | Cl (6 h): 108.4 meq/L | DBIL (6 h): 0 mg/dL | GLC (6 h): 191 mg/dL | IP (6 h): 8.2 mg/dL | K (6 h): 3.5 meq/L | LDH (6 h): 212 IU/L | Na (6 h): 140.4 meq/L | PL (6 h): 126 mg/dL | RALB (6 h): 3.2 g/dL | TBIL (6 h): 0.018 mg/dL | TC (6 h): 70.2 mg/dL | TG (6 h): 36 mg/dL | TP (6 h): 5.7 g/dL | gamma-GTP (6 h): 1.2 IU/L
